In paper PMC5686591, “Identification and Characterization of the Major Porin of Desulfovibrio vulgaris Hildenborough” (Journal of Bacteriology, 2017):

Target: T1, DVU0799 (Nitratidesulfovibrio vulgaris, UniProt Q72DY0)
T1 construct: gene DVU_0799; native protein purified from wild-type outer membranes (octyl glucoside), untagged; monomer about 50 kDa, homotrimer; reconstituted in proteoliposomes
T1 sequence (Q72DY0 24-466): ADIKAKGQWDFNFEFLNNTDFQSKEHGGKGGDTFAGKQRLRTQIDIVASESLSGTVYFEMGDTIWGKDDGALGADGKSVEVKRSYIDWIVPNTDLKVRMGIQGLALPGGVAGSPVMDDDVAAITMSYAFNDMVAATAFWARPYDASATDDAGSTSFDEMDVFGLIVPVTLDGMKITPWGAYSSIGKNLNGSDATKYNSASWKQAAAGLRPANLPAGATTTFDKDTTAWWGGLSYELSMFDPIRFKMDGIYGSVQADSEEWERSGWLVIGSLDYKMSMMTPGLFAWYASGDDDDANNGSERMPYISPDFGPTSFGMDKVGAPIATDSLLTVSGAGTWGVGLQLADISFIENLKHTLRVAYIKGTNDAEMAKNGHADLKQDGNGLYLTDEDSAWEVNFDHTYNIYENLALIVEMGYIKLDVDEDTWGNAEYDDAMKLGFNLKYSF
Experiment: liposome swelling assay (OD400), reconstituted proteoliposomes
Format: biochemical
Settings: pore permeation (passive diffusion)

Row | SMILES | relative permeability (relative to L-arabinose, 9 mM solute, 4 mM sodium NAD, 1 mM imidazole-NAD, pH 6.0) | relative permeability (scaling reference of the assay, about 20 mM solute)
1 | O=C(O)[C@H](O)[C@@H](O)[C@H](O)[C@H](O)CO [D-gluconate] | purified DVU0799 were also surveyed for their permeability to two sugar acids, D-gluconate | 
2 | OC1OC[C@H](O)[C@H](O)[C@H]1O (stereo partly drawn) [L-arabinose] |  | the permeability profile begins with that for L-arabinose at the upper limit
